Results as given in US20240376163A1, “PEPTIDE FOR INHIBITING CALCINEURIN AND USE THEREOF” (Seoul National University R&DB Foundation, priority 2023, published 2024).

System: Jurkat T cells
Assay: mRNA sequencing of activated Jurkat T cells
Format: cell-based, human

Structure (SMILES): C=CC[C@@H]1/C=C(\C)C[C@H](C)C[C@H](OC)[C@H]2O[C@@](O)(C(=O)C(=O)N3CCCC[C@H]3C(=O)O[C@H](/C(C)=C/[C@@H]3CC[C@@H](O)[C@H](OC)C3)[C@H](C)[C@@H](O)CC1=O)[C@H](C)C[C@@H]2OC [FK506, Tacrolimus, reference compound]
- GPR108 FPKM (P+I): 31.682 FPKM
- GPR183 FPKM (P+I): 5.776 FPKM
- GRAP2 FPKM (P+I): 19.094 FPKM
- GRK5 FPKM (P+I): 8.481 FPKM
- GZMH FPKM (P+I): 7.694 FPKM
- HAPLN3 FPKM (P+I): 48.4 FPKM
- HDC FPKM (P+I): 26.3 FPKM
- HHIP FPKM (P+I): 9.345 FPKM
- HHIP-AS1 FPKM (P+I): 32.468 FPKM
- HIVEP2 FPKM (P+I): 7.494 FPKM
- HSP90B1 FPKM (P+I): 877.39 FPKM
- HSP90B2P FPKM (P+I): 8.45 FPKM
- HSPA5 FPKM (P+I): 373.499 FPKM
- ICAM1 FPKM (P+I): 12.704 FPKM
- ID2 FPKM (P+I): 13.425 FPKM
- IER2 FPKM (P+I): 181.539 FPKM
- IER3 FPKM (P+I): 31.73 FPKM
- IFFO2 FPKM (P+I): 2.752 FPKM
- IFIH1 FPKM (P+I): 11.544 FPKM
- IFNG FPKM (P+I): 3.8 FPKM
- IGLL1 FPKM (P+I): 3.429 FPKM
- IGSF9B FPKM (P+I): 7.175 FPKM
- IL2RA FPKM (P+I): 5.833 FPKM
- IL3 FPKM (P+I): 0.062 FPKM
- IL4I1 FPKM (P+I): 7.078 FPKM
- IL16 FPKM (P+I): 10.552 FPKM
- IL22 FPKM (P+I): 3.116 FPKM
- IL23A FPKM (P+I): 12.207 FPKM
- IMPA2 FPKM (P+I): 3.015 FPKM
- IRF8 FPKM (P+I): 1.19 FPKM
- IRF9 FPKM (P+I): 39.109 FPKM
- ISM1 FPKM (P+I): 0.726 FPKM
- JAK3 FPKM (P+I): 8.03 FPKM
- JUN FPKM (P+I): 3.835 FPKM
- JUNB FPKM (P+I): 55.036 FPKM
- KBTBD11 FPKM (P+I): 2.434 FPKM
- KCNK5 FPKM (P+I): 3.906 FPKM
- KCTD11 FPKM (P+I): 3.399 FPKM
- KIAA0922 FPKM (P+I): 12.92 FPKM
- KIF1B FPKM (P+I): 11.727 FPKM
- KIF3B FPKM (P+I): 13.87 FPKM
- KLF2 FPKM (P+I): 1.971 FPKM
- KSR1 FPKM (P+I): 4.79 FPKM
- LAIR2 FPKM (P+I): 2.203 FPKM
- LAMP3 FPKM (P+I): 6.412 FPKM
- LAX1 FPKM (P+I): 8.052 FPKM
- LDLRAP1 FPKM (P+I): 0.778 FPKM
- LIME1 FPKM (P+I): 15.749 FPKM
- LINC00152 FPKM (P+I): 32.822 FPKM
- LINC00426 FPKM (P+I): 1.041 FPKM
- LINC00528 FPKM (P+I): 5.759 FPKM
- LINC00539 FPKM (P+I): 5.004 FPKM
- LINC00977 FPKM (P+I): 0.741 FPKM
- LOC729603 FPKM (P+I): 2.179 FPKM
- LRRC8B FPKM (P+I): 3.555 FPKM
- LRRC45 FPKM (P+I): 4.142 FPKM
- LYPD3 FPKM (P+I): 2.727 FPKM
- MAP2K3 FPKM (P+I): 41.815 FPKM
- MAP2K6 FPKM (P+I): 1.149 FPKM
- MBOAT2 FPKM (P+I): 3.773 FPKM
- MCM4 FPKM (P+I): 26.368 FPKM
- MCM5 FPKM (P+I): 37.057 FPKM
- METRNL FPKM (P+I): 7.501 FPKM
- MIR221 FPKM (P+I): 10.429 FPKM
- MIR4435-1HG FPKM (P+I): 17.138 FPKM
- MIR6891 FPKM (P+I): 24.428 FPKM
- MMP10 FPKM (P+I): 11.973 FPKM
- MRPL39 FPKM (P+I): 132.452 FPKM
- MYO1D FPKM (P+I): 4.59 FPKM
- MYO1G FPKM (P+I): 98.59 FPKM
- MYO7B FPKM (P+I): 15.796 FPKM
- NAMPT FPKM (P+I): 34.628 FPKM
- NDFIP1 FPKM (P+I): 22.485 FPKM
- NDFIP2 FPKM (P+I): 13.13 FPKM
- NDST3 FPKM (P+I): 10.369 FPKM
- NEIL3 FPKM (P+I): 9.418 FPKM
- NEXN FPKM (P+I): 3.661 FPKM
- NFE2L3 FPKM (P+I): 15.944 FPKM
- NFKBIA FPKM (P+I): 39.193 FPKM
- NFKBID FPKM (P+I): 6.668 FPKM
- NFKBIE FPKM (P+I): 11.399 FPKM
- NINJ1 FPKM (P+I): 11.769 FPKM
- NKD2 FPKM (P+I): 3.385 FPKM
- NKX3-1 FPKM (P+I): 7.464 FPKM
- NLRC5 FPKM (P+I): 38.784 FPKM
- NPY FPKM (P+I): 4.771 FPKM
- NR4A1 FPKM (P+I): 52.553 FPKM
- NR4A2 FPKM (P+I): 0.04 FPKM
- NRROS FPKM (P+I): 36.775 FPKM
- NT5M FPKM (P+I): 1.582 FPKM
- NXN FPKM (P+I): 2.574 FPKM
- OAS3 FPKM (P+I): 13.085 FPKM
- OSBPL3 FPKM (P+I): 24.517 FPKM
- PARP9 FPKM (P+I): 84.306 FPKM
- PARP14 FPKM (P+I): 65.432 FPKM
- PCBP3 FPKM (P+I): 4.527 FPKM
- PDE3B FPKM (P+I): 9.108 FPKM
- PEAK1 FPKM (P+I): 5.442 FPKM
- PELI1 FPKM (P+I): 8.175 FPKM
- PHEX FPKM (P+I): 0.213 FPKM
- PHF7 FPKM (P+I): 3.968 FPKM
- PHLDA1 FPKM (P+I): 65.703 FPKM
- PIDD1 FPKM (P+I): 5.28 FPKM
- PIM3 FPKM (P+I): 42.827 FPKM
- PKIA FPKM (P+I): 13.962 FPKM
- PLAU FPKM (P+I): 45.171 FPKM
- PLEKHO1 FPKM (P+I): 47.519 FPKM
- PLK3 FPKM (P+I): 5.257 FPKM
- PMAIP1 FPKM (P+I): 26.095 FPKM
- PMEPA1 FPKM (P+I): 3.548 FPKM
- PODXL FPKM (P+I): 1.86 FPKM
- POU3F2 FPKM (P+I): 1.044 FPKM
- PPFIBP1 FPKM (P+I): 12.205 FPKM
- PPM1H FPKM (P+I): 4.492 FPKM
- PRKCA FPKM (P+I): 14.104 FPKM
- PTK2 FPKM (P+I): 13.215 FPKM
- PTPN22 FPKM (P+I): 6.37 FPKM
- PTPRE FPKM (P+I): 14.031 FPKM
- PWWP2B FPKM (P+I): 2.769 FPKM
- PXMP2 FPKM (P+I): 5.624 FPKM
- RAG1 FPKM (P+I): 0.251 FPKM
- RAG2 FPKM (P+I): 0.173 FPKM
- RAP1GAP2 FPKM (P+I): 0.368 FPKM
- RAP1GAP FPKM (P+I): 1.878 FPKM
- RDH10 FPKM (P+I): 5.856 FPKM
- REL FPKM (P+I): 4.749 FPKM
- RELB FPKM (P+I): 29.337 FPKM
- RGS3 FPKM (P+I): 2.142 FPKM
- RGS16 FPKM (P+I): 1.172 FPKM
- RMI1 FPKM (P+I): 8.984 FPKM
- RORB FPKM (P+I): 3.782 FPKM
- S1PR1 FPKM (P+I): 0.737 FPKM
- SAMD1 FPKM (P+I): 15.561 FPKM
- SECISBP2L FPKM (P+I): 13.57 FPKM
- SELPLG FPKM (P+I): 5.062 FPKM
- SEMA7A FPKM (P+I): 26.567 FPKM
- SERPINB2 FPKM (P+I): 2.905 FPKM
- SERPINE1 FPKM (P+I): 6.785 FPKM
- SH2B3 FPKM (P+I): 13.899 FPKM
- SH2D5 FPKM (P+I): 1.469 FPKM
- SH3BGRL3 FPKM (P+I): 408.163 FPKM
- SH3RF2 FPKM (P+I): 27.941 FPKM
- SHC4 FPKM (P+I): 0.663 FPKM
- SIT1 FPKM (P+I): 48.56 FPKM
- SIX6 FPKM (P+I): 15.688 FPKM
- SLC2A3 FPKM (P+I): 45.525 FPKM
- SLC2A4RG FPKM (P+I): 2.367 FPKM
- SLC7A5 FPKM (P+I): 207.842 FPKM
- SLC25A45 FPKM (P+I): 3.26 FPKM
- SLCO3A1 FPKM (P+I): 3.481 FPKM
- SLIT1 FPKM (P+I): 2.6 FPKM
- SMIM14 FPKM (P+I): 7.677 FPKM
- SOCS1 FPKM (P+I): 9.708 FPKM
- SOCS3 FPKM (P+I): 8.922 FPKM
- SOSTDC1 FPKM (P+I): 8.472 FPKM
- SPRY2 FPKM (P+I): 16.882 FPKM
- SREBF1 FPKM (P+I): 14.076 FPKM
- ST3GAL6-AS1 FPKM (P+I): 9.039 FPKM
- ST8SIA4 FPKM (P+I): 11.077 FPKM
- STARD4 FPKM (P+I): 20.118 FPKM
- STAT1 FPKM (P+I): 611.139 FPKM
- STAT5A FPKM (P+I): 3.347 FPKM
- STX11 FPKM (P+I): 2.733 FPKM
- SYTL1 FPKM (P+I): 15.004 FPKM
- TBC1D10C FPKM (P+I): 23.871 FPKM
- TBC1D20 FPKM (P+I): 17.7 FPKM
- TBX21 FPKM (P+I): 24.784 FPKM
- THY1 FPKM (P+I): 3.994 FPKM
- TIMP2 FPKM (P+I): 1.948 FPKM
- TM4SF1 FPKM (P+I): 0.439 FPKM
- TM7SF3 FPKM (P+I): 29.483 FPKM
- TMEM229B FPKM (P+I): 6.813 FPKM
- TMTC4 FPKM (P+I): 2.677 FPKM
- TNFRSF4 FPKM (P+I): 2.933 FPKM
- TNFRSF12A FPKM (P+I): 8.559 FPKM
- TNFRSF14 FPKM (P+I): 12.35 FPKM
- TNFSF9 FPKM (P+I): 2.568 FPKM
- TNRC6C FPKM (P+I): 4.711 FPKM
- TNS3 FPKM (P+I): 0.678 FPKM
- TRAF1 FPKM (P+I): 11.176 FPKM
- TRAT1 FPKM (P+I): 7.968 FPKM
- TRIM22 FPKM (P+I): 2.908 FPKM
- TSHR FPKM (P+I): 1.535 FPKM
- TSPAN2 FPKM (P+I): 2.414 FPKM
- TSPAN7 FPKM (P+I): 44.718 FPKM
- TTC28 FPKM (P+I): 2.798 FPKM
- TUBB2A FPKM (P+I): 7.594 FPKM
- TUBB3 FPKM (P+I): 9.713 FPKM
- UHRF1BP1L FPKM (P+I): 7.474 FPKM
- USP30-AS1 FPKM (P+I): 6.464 FPKM
- VANGL1 FPKM (P+I): 9.553 FPKM
- VASH2 FPKM (P+I): 5.761 FPKM
- VGF FPKM (P+I): 59.749 FPKM
- XAF1 FPKM (P+I): 15.924 FPKM
- XBP1 FPKM (P+I): 43.828 FPKM
- XYLB FPKM (P+I): 1.506 FPKM
- YBX2 FPKM (P+I): 1.555 FPKM
- ZC3H12A FPKM (P+I): 13.36 FPKM
- CD27 and CD70 expression (upon T-cell activation): inhibited CD27 and CD70
- RNA levels of representative T-cell activation markers (IL2, IL3, NFATC1, CCL4, CCL20, CXCL8) (upon T-cell activation): reduced RNA levels of representative T-cell activation markers
